Results on twelve compounds are retold here after patent US7880007B2, “Bicyclic substituted phenyl piperidine modulators of muscarinic receptors” (Vertex Pharmaceuticals Incorporated, priority 2004, dated 2011).

Where only a bound is given, the exact number is not on record here.

Holding throughout (type): cell-based
In one test the target is T1, M1 muscarinic receptor (Homo sapiens, UniProt P11229).
T1 construct: expressed in transfected cells; host or cells: CHO (M1-CHO)
T1 sequence (P11229 1-460): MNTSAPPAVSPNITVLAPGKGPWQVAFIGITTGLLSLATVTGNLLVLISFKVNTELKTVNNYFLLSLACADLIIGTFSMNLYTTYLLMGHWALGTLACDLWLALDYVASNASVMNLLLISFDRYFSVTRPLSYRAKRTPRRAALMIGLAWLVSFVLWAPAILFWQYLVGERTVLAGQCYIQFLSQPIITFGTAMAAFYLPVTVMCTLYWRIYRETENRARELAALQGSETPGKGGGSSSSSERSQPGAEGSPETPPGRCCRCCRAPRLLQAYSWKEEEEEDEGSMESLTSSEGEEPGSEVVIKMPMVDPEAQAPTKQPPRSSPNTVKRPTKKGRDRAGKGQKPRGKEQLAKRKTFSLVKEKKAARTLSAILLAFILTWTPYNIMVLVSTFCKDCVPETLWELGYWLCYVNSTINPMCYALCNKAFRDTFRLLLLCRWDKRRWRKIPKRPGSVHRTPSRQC
In words: Functional mobilization of intracellular calcium (FLIPR), M1-CHO cells. Particulars: for Emax: 100% efficacy = maximum response obtained with the Carbachol control; for M1 Activity: M1-CHO cells, calcium mobilization (FLIPR). An outline of the steps:
(§1)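 FLIPR fluorescence (ex 488, em 540 nm) recorded 60 sec after compound addition to dye-loaded CHO cells. Agonist mode: compound alone. Antagonist mode: 15 min compound pre-incubation, then carbachol at EC80, or co-application. Efficacy expressed as % of maximal carbachol response.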

A further test deals with T2, M2 muscarinic receptor (Homo sapiens, UniProt P08172).
T2 construct: expressed in transfected cells; host or cells: CHO (M2-CHO)
T2 sequence (P08172 1-466): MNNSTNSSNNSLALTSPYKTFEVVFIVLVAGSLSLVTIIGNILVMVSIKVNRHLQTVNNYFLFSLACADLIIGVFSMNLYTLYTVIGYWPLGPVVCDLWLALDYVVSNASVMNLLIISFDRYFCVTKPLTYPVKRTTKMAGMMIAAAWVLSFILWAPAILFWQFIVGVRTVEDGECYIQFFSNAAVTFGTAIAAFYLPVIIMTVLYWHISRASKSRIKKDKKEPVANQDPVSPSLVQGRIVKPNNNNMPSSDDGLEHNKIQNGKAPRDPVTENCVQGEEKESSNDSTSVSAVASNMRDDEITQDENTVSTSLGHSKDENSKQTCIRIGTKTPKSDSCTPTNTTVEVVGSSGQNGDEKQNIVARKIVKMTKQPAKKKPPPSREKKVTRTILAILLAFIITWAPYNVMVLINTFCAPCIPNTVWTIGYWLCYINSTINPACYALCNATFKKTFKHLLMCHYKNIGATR
In words: Functional mobilization of intracellular calcium (FLIPR), M2-CHO cells. Particulars: for Emax: 100% efficacy = maximum response obtained with the Carbachol control; for M2 Activity: M2-CHO cells, calcium mobilization (FLIPR). In a few lines: as §1

Another test concerns the target T3, M3 muscarinic receptor (Homo sapiens, UniProt P20309).
T3 construct: expressed in transfected cells; host or cells: CHO (M3-CHO)
In words: Functional mobilization of intracellular calcium (FLIPR), M3-CHO cells. Conditions: for Emax: 100% efficacy = maximum response obtained with the Carbachol control; for M3 Activity: M3-CHO cells, calcium mobilization (FLIPR). An outline of the steps:
as §1

The next test deals with T4, M4 muscarinic receptor (Homo sapiens, UniProt P08173).
T4 construct: expressed in transfected cells; host or cells: CHO (M4-CHO)
T4 sequence (P08173 1-479): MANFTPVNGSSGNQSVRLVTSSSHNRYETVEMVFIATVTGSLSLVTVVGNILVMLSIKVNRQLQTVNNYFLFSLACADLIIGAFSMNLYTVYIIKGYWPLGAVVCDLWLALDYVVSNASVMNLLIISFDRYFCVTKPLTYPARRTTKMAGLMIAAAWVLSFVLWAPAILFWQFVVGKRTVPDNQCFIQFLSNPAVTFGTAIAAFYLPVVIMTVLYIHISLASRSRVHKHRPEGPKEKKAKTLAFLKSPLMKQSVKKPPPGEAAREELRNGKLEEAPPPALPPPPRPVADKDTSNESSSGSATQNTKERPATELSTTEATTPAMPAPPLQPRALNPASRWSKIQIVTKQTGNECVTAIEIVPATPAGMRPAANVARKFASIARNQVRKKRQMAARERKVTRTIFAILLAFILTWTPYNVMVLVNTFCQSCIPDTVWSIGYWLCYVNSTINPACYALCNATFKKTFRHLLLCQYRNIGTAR
Description: Functional mobilization of intracellular calcium (FLIPR), M4-CHO cells. Conditions: for Emax: 100% efficacy = maximum response obtained with the Carbachol control; for M4 Activity: M4-CHO cells, calcium mobilization (FLIPR). In a few lines:
as §1

T3 sequence (P20309 whole entry): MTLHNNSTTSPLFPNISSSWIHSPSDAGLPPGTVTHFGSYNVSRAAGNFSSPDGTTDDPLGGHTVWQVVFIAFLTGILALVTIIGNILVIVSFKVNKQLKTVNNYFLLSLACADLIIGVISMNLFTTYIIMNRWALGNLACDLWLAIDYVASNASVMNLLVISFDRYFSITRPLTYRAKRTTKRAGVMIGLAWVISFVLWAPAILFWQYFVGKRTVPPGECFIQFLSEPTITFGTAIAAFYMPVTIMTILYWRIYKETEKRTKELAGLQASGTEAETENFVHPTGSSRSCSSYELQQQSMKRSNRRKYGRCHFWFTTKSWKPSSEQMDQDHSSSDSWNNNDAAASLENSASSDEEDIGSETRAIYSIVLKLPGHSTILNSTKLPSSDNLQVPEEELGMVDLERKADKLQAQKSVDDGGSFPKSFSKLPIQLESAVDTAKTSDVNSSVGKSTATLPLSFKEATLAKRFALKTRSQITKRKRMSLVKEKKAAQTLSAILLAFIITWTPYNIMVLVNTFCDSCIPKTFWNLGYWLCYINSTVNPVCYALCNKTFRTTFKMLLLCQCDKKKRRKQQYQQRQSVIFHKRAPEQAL

Turning to `c1cc2c(c(C3CCN(C4C[C@@H]5CC[C@@H]4C5)CC3)c1)OCO2` (stereo partly drawn) [Compound 236], at M1 muscarinic receptor, the Emax lay within 25 to 100% and the “M1 Activity” value is on record as “++ (activity was measured to be from 1.0 μM to 5.0 μM)”. Further, at M2 muscarinic receptor, the maximum response (Emax) is < 25% and the “M2 Activity” value is on record as “+ (activity was measured to be greater than 5.0 μM)”. Moreover, at M3 muscarinic receptor, the Emax was < 25% and the “M3 Activity” value was “+ (activity was measured to be greater than 5.0 μM)”. Moreover, at M4 muscarinic receptor, the maximal effect (Emax) was 25 to 100% and the “M4 Activity” value was “+++ (activity was measured to be less than 1.0 μM)”.

Consider `COc1ccc(-c2ccoc2)cc1C1CCN([C@@H]2C[C@H]3CC[C@H]2C3)CC1` [Compound 237], for which, on M1 muscarinic receptor, the Emax is < 25% and the “M1 Activity” value is given as “+ (activity was measured to be greater than 5.0 μM)”. Besides, at M2 muscarinic receptor, the Emax is < 25% and the “M2 Activity” value is reported as “+ (activity was measured to be greater than 5.0 μM)”. For the same compound, at M3 muscarinic receptor, the Emax is < 25% and the “M3 Activity” value is given as “+ (activity was measured to be greater than 5.0 μM)”. Moreover, on M4 muscarinic receptor, the Emax fell in the range of 25 to 100% and the “M4 Activity” value is listed as “++ (activity was measured to be from 1.0 μM to 5.0 μM)”.

In the case of `COC(=O)CC1CCCC(N2CCC(c3ccccc3OC)CC2)C1` (stereo not drawn) [Compound 238], at M1 muscarinic receptor, the Emax was in the range of 25 to 100% and the “M1 Activity” value was “+ (activity was measured to be greater than 5.0 μM)”. For the same compound, on M2 muscarinic receptor, the maximal response (Emax) is < 25% and the “M2 Activity” value is on record as “+ (activity was measured to be greater than 5.0 μM)”. On M3 muscarinic receptor, the maximal effect (Emax) was < 25% and the “M3 Activity” value was “+ (activity was measured to be greater than 5.0 μM)”. Moreover, on M4 muscarinic receptor, the maximal response (Emax) fell in the range of 25 to 100% and the “M4 Activity” value is reported as “+++ (activity was measured to be less than 1.0 μM)”.

Turning to `COc1ccc(F)cc1C1(F)CCN(CC2CCOCC2)CC1` [Compound 239], at M1 muscarinic receptor, the maximum response (Emax) was 25 to 100% and the “M1 Activity” value is “+ (activity was measured to be greater than 5.0 μM)”. Moreover, at M2 muscarinic receptor, the Emax is < 25% and the “M2 Activity” value is reported as “+ (activity was measured to be greater than 5.0 μM)”. Further, on M3 muscarinic receptor, the Emax is < 25% and the “M3 Activity” value is given as “+ (activity was measured to be greater than 5.0 μM)”. At M4 muscarinic receptor, the Emax lay in the range of 25 to 100% and the “M4 Activity” value was “++ (activity was measured to be from 1.0 μM to 5.0 μM)”.

Regarding `COc1ccc(-c2ccccc2C2CCN([C@H]3C[C@H]4CC[C@H]3C4)CC2)cc1` [Compound 241], at M1 muscarinic receptor, the Emax was 25 to 100% and the “M1 Activity” value is “+ (activity was measured to be greater than 5.0 μM)”. Besides, on M2 muscarinic receptor, the Emax was < 25% and the “M2 Activity” value was “+ (activity was measured to be greater than 5.0 μM)”. Besides, at M3 muscarinic receptor, the Emax was < 25% and the “M3 Activity” value is reported as “+ (activity was measured to be greater than 5.0 μM)”. For the same compound, on M4 muscarinic receptor, the Emax lay within 25 to 100% and the “M4 Activity” value is listed as “++ (activity was measured to be from 1.0 μM to 5.0 μM)”.

For `COc1ccc(F)cc1C1(F)CCN(C2CCC3CCC2C3)CC1` (stereo not drawn) [Compound 242], on M1 muscarinic receptor, the maximal effect (Emax) is 25 to 100% and the “M1 Activity” value is reported as “++ (activity was measured to be from 1.0 μM to 5.0 μM)”. Besides, on M2 muscarinic receptor, the Emax was 25 to 100% and the “M2 Activity” value is on record as “+ (activity was measured to be greater than 5.0 μM)”. On M3 muscarinic receptor, the Emax was < 25% and the “M3 Activity” value is given as “+ (activity was measured to be greater than 5.0 μM)”. Moreover, at M4 muscarinic receptor, the Emax is 25 to 100% and the “M4 Activity” value was “+++ (activity was measured to be less than 1.0 μM)”.

With `CCOC(=O)N1CCC(CN2CCC(c3cc(-c4ccc(C(=O)NC)cc4)ccc3OC)CC2)CC1` [Compound 243], on M1 muscarinic receptor, the Emax lay within 25 to 100% and the “M1 Activity” value is “+++ (activity was measured to be less than 1.0 μM)”. At M2 muscarinic receptor, the Emax is < 25% and the “M2 Activity” value is reported as “+ (activity was measured to be greater than 5.0 μM)”. Also, on M3 muscarinic receptor, the Emax was < 25% and the “M3 Activity” value is “+ (activity was measured to be greater than 5.0 μM)”. Besides, at M4 muscarinic receptor, the maximal effect (Emax) was in the range of 25 to 100% and the “M4 Activity” value is recorded as “+++ (activity was measured to be less than 1.0 μM)”.

On to `COc1ccc(C)cc1C1CCN(C2C[C@H]3CC[C@H](C2)C3)CC1` (stereo partly drawn) [Compound 246], for which, on M1 muscarinic receptor, the maximum response (Emax) was 25 to 100% and the “M1 Activity” value is “++ (activity was measured to be from 1.0 μM to 5.0 μM)”. Also, at M2 muscarinic receptor, the Emax was in the range of 25 to 100% and the “M2 Activity” value is on record as “+ (activity was measured to be greater than 5.0 μM)”. Also, on M3 muscarinic receptor, the maximum response (Emax) was < 25% and the “M3 Activity” value is on record as “+ (activity was measured to be greater than 5.0 μM)”. For the same compound, on M4 muscarinic receptor, the Emax is 25 to 100% and the “M4 Activity” value is listed as “+++ (activity was measured to be less than 1.0 μM)”.

On to `COc1ccc(F)cc1C1(OC)CCN(C2CC3CCC(C3)C2)CC1` (stereo not drawn) [Compound 247], for which, at M1 muscarinic receptor, the Emax was < 25% and the “M1 Activity” value was “+ (activity was measured to be greater than 5.0 μM)”. Further, on M2 muscarinic receptor, the maximum response (Emax) was < 25% and the “M2 Activity” value is reported as “+ (activity was measured to be greater than 5.0 μM)”. For the same compound, at M3 muscarinic receptor, the Emax was < 25% and the “M3 Activity” value is “+ (activity was measured to be greater than 5.0 μM)”. Further, on M4 muscarinic receptor, the maximal response (Emax) lay in the range of 25 to 100% and the “M4 Activity” value is on record as “+++ (activity was measured to be less than 1.0 μM)”.

As to `COc1ccc(Cl)cc1C1CCN(C2CC[S+]([O-])CC2)CC1` (stereo not drawn) [Compound 248], at M1 muscarinic receptor, the Emax was < 25% and the “M1 Activity” value was “+ (activity was measured to be greater than 5.0 μM)”. For the same compound, at M2 muscarinic receptor, the Emax is < 25% and the “M2 Activity” value was “+ (activity was measured to be greater than 5.0 μM)”. In addition, on M3 muscarinic receptor, the Emax was < 25% and the “M3 Activity” value was “+ (activity was measured to be greater than 5.0 μM)”. Besides, on M4 muscarinic receptor, the maximum response (Emax) was in the range of 25 to 100% and the “M4 Activity” value was “+ (activity was measured to be greater than 5.0 μM)”.

Take `COc1ccc(Cl)cc1C1CCN(C2CCOCC2)CC1` [Compound 249]: on M1 muscarinic receptor, the Emax was in the range of 25 to 100% and the “M1 Activity” value was “+ (activity was measured to be greater than 5.0 μM)”. On M2 muscarinic receptor, the Emax was in the range of 25 to 100% and the “M2 Activity” value is recorded as “+ (activity was measured to be greater than 5.0 μM)”. Also, on M3 muscarinic receptor, the maximum response (Emax) is < 25% and the “M3 Activity” value is “+ (activity was measured to be greater than 5.0 μM)”. At M4 muscarinic receptor, the Emax lay in the range of 25 to 100% and the “M4 Activity” value is listed as “+++ (activity was measured to be less than 1.0 μM)”.

Turning to `COc1ccc(C#N)cc1C1CCN([C@H]2C[C@H]3CC[C@H]2C3)CC1` [Compound 250], at M1 muscarinic receptor, the maximal response (Emax) is 25 to 100% and the “M1 Activity” value was “++ (activity was measured to be from 1.0 μM to 5.0 μM)”. In addition, on M2 muscarinic receptor, the maximal response (Emax) was < 25% and the “M2 Activity” value was “+ (activity was measured to be greater than 5.0 μM)”. Besides, on M3 muscarinic receptor, the maximal response (Emax) was < 25% and the “M3 Activity” value is “+ (activity was measured to be greater than 5.0 μM)”. For the same compound, on M4 muscarinic receptor, the maximal effect (Emax) lay in the range of 25 to 100% and the “M4 Activity” value is given as “+++ (activity was measured to be less than 1.0 μM)”.
